Assay results published in patent US20220096487A1 (priority 2019, published 2022).

What was measured:
OATP1B3 = OATP1B3 (Homo sapiens, UniProt Q9NPD5); assay: In vitro substrate assessment, OATP1B3; assay type: in vitro ADME
UGT1A3 = UGT1A3 (Homo sapiens, UniProt P35503); assay: In vitro substrate assessment, UGT1A3; assay type: in vitro ADME
renal OCT2 = renal OCT2 (Homo sapiens, UniProt O15244); assay: In vitro inhibition of renal OCT2; assay type: in vitro ADME
[1] = Carcinogenicity studies in mice; conditions: two-year study, doses up to 500 mg/kg, highest dose tested
[2] = Population pharmacokinetic analyses; assay type: in vivo, human
HIV-2 clinical isolates = assay: Dolutegravir PBMC assays against HIV-2 clinical isolates; assay type: cell-based; conditions: Human immunodeficiency virus 2, three HIV-2 clinical isolates
[3] = molecular target: multidrug resistance protein (MRP)2 (Homo sapiens, UniProt Q92887); assay: In vitro inhibition of MRP2; assay type: in vitro ADME; conditions: did not inhibit
[4] = test system: INSTI-resistant site-directed mutant HIV-1 viruses; assay: Susceptibility against INSTI-resistant site-directed mutant viruses; assay type: cell-based
[5] = Dolutegravir embryo-fetal development study in pregnant rats; assay type: in vivo, rat; conditions: oral up to 1,000 mg/kg daily, gestation Days 6 to 17
CYP3A4 = assay: In vitro induction of CYP3A4; assay type: in vitro ADME
OATP1B1 = OATP1B1 (Homo sapiens, UniProt Q9Y6L6); assay: In vitro substrate assessment, OATP1B1; assay type: in vitro ADME
CYP2A6 = CYP2A6 (Homo sapiens, UniProt P11509); assay: In vitro inhibition of CYP2A6; assay type: in vitro ADME; conditions: did not inhibit
[6] = Dolutegravir rat pre/post-natal development study; assay type: in vivo; conditions: relative to human exposure at the RHD
Text: In the rat pre/post-natal development study, decreased body weight of the developing offspring was observed during lactation at a maternally toxic dose (approximately 32 times human exposure at the RHD).

[7] = Dolutegravir embryo-fetal development study in pregnant rabbits; assay type: in vivo, rabbit; conditions: oral up to 1,000 mg/kg daily, gestation Days 6 to 18
[8] = Bacterial reverse mutation assay
[9] = Established and other potentially significant drug interactions for dolutegravir (Table 5); assay type: in vivo, human
Text: These recommendations are based on either drug interaction trials or predicted interactions due to the expected magnitude of interaction and potential for serious adverse events or loss of efficacy [see Contraindications (4), Clinical Pharmacology (12.3)].

UGT1A9 = UGT1A9 (Homo sapiens, UniProt O60656); assay: In vitro substrate assessment, UGT1A9; assay type: in vitro ADME
CYP1A2 = CYP1A2 (Homo sapiens, UniProt P05177); assay: In vitro inhibition of CYP1A2; assay type: in vitro ADME; conditions: did not inhibit
OAT3 = OAT3 (Homo sapiens, UniProt Q8TCC7); assay: In vitro inhibition of OAT3; assay type: in vitro ADME
[10] = molecular target: organic anion transporter (OAT)1 (Homo sapiens, UniProt Q4U2R8); assay: In vitro inhibition of OAT1; assay type: in vitro ADME
[11] = cited from earlier work
CYP2C9 = CYP2C9 (Homo sapiens, UniProt P11712); assay: In vitro inhibition of CYP2C9; assay type: in vitro ADME; conditions: did not inhibit
UGT2B7 = UGT2B7 (Homo sapiens, UniProt P16662); assay: In vitro inhibition of UGT2B7; assay type: in vitro ADME; conditions: did not inhibit
[12] = test system: 13 clinically diverse clade B isolates; assay: Viral integrase susceptibility assay using integrase coding region from clinical isolates; assay type: cell-based, HIV-1; conditions: Human immunodeficiency virus 1; 13 clade B isolates
BCRP = molecular target: T1, BCRP (Homo sapiens, UniProt Q9UNQ0); assay: In vitro inhibition of BCRP; assay type: in vitro ADME; conditions: did not inhibit
T1 sequence (Q9UNQ0 1-655): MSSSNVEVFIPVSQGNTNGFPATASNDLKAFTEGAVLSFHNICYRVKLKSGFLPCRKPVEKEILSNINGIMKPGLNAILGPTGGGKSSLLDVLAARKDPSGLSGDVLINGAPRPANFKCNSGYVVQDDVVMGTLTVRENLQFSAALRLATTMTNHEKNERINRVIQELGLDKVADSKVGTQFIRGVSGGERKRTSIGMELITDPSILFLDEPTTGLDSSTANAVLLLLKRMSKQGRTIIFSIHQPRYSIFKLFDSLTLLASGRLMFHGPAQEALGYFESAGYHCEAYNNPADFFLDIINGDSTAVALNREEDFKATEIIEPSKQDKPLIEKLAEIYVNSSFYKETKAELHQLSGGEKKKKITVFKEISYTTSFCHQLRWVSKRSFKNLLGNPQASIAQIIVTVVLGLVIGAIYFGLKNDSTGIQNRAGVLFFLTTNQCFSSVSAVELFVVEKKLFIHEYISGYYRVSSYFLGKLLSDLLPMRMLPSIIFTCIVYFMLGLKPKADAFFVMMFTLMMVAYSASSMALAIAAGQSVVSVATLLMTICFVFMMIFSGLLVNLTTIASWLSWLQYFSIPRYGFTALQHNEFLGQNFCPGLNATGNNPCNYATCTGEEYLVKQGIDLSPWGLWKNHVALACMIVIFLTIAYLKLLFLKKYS

[13] = Thorough QT trial in healthy subjects; assay type: in vivo, human
[14] = test system: HIV-1 with integrase substitutions; assay: Selection of dolutegravir-resistant viruses in cell culture; assay type: cell-based

CYP1A2, sequence (P05177 whole entry): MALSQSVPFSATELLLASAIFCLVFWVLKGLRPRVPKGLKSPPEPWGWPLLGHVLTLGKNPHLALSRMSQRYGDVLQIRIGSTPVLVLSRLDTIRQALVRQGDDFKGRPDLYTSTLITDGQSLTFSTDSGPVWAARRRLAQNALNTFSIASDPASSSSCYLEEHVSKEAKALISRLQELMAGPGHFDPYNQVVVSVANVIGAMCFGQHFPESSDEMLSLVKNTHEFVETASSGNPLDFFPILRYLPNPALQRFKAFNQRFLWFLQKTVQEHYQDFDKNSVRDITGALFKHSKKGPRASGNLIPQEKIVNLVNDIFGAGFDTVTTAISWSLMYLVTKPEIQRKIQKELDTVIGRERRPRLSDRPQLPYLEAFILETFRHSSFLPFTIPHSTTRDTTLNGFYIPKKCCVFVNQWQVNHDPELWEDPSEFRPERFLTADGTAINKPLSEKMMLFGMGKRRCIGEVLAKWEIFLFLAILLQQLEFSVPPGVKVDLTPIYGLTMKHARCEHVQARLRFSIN
UGT1A9, sequence (O60656 26-530): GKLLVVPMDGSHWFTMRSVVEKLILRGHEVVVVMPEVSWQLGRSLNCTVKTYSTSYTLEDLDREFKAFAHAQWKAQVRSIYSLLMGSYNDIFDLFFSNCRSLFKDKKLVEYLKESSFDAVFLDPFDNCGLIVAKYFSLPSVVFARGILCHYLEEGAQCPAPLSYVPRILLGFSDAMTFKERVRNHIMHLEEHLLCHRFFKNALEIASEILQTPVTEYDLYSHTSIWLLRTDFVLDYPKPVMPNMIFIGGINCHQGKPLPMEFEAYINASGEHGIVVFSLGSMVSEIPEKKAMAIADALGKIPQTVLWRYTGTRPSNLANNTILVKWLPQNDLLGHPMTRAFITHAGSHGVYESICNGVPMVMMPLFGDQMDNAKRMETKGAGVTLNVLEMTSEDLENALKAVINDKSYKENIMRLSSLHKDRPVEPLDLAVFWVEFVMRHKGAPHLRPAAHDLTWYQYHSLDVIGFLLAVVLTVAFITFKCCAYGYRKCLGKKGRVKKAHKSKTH
CYP2A6, sequence (P11509 whole entry): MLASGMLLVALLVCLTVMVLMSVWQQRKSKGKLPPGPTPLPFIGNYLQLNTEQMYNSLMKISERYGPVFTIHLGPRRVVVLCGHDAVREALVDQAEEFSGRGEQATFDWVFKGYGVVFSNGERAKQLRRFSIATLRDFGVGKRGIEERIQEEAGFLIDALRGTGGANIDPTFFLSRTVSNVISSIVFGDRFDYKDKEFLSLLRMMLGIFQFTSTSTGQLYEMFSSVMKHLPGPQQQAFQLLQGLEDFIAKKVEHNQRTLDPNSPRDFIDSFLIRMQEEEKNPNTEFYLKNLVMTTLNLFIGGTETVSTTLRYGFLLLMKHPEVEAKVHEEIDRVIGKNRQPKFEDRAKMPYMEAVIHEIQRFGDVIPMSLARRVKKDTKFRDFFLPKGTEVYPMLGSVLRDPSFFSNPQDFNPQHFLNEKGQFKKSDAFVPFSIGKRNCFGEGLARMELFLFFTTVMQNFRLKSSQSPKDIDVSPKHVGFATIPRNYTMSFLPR
UGT1A3, sequence (P35503 29-534): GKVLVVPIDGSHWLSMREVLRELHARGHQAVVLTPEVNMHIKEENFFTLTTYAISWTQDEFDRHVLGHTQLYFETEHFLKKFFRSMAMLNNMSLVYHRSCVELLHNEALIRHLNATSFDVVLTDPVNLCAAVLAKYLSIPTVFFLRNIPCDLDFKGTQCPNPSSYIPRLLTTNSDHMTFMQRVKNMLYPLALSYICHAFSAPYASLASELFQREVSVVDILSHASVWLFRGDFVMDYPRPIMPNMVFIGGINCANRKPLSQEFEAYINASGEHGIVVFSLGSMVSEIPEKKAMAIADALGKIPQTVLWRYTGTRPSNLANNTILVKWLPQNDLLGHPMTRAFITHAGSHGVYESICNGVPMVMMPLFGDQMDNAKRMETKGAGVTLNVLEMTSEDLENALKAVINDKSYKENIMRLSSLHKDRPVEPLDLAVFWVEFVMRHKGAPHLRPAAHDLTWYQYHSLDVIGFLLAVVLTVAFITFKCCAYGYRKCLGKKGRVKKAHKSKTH
CYP2C9, sequence (P11712 whole entry): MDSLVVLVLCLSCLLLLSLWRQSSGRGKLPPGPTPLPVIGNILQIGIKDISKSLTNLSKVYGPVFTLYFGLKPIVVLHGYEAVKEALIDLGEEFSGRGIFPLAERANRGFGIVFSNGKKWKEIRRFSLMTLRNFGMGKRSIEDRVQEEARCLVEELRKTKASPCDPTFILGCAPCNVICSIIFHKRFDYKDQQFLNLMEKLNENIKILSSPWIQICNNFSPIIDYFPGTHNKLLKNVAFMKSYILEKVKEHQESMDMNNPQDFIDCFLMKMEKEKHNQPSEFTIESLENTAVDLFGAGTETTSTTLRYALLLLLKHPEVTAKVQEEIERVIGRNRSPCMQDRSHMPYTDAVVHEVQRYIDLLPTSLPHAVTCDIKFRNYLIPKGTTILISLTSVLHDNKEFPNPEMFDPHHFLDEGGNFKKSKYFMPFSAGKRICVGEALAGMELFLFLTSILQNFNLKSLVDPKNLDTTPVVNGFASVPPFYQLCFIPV
UGT2B7, sequence (P16662 24-529): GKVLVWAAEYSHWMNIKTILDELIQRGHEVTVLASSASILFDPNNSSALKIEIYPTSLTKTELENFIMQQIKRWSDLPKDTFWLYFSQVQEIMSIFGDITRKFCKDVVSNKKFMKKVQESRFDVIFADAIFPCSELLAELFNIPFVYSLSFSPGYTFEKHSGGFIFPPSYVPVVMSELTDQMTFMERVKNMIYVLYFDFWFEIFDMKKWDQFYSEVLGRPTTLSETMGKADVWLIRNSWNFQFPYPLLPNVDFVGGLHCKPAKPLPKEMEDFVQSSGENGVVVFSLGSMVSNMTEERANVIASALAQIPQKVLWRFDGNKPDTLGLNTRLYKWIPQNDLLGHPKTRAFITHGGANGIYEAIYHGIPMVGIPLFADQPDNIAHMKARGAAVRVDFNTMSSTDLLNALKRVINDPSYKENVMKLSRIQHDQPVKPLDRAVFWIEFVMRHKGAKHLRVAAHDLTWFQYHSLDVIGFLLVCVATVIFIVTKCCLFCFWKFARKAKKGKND
OATP1B3, sequence (Q9NPD5 whole entry): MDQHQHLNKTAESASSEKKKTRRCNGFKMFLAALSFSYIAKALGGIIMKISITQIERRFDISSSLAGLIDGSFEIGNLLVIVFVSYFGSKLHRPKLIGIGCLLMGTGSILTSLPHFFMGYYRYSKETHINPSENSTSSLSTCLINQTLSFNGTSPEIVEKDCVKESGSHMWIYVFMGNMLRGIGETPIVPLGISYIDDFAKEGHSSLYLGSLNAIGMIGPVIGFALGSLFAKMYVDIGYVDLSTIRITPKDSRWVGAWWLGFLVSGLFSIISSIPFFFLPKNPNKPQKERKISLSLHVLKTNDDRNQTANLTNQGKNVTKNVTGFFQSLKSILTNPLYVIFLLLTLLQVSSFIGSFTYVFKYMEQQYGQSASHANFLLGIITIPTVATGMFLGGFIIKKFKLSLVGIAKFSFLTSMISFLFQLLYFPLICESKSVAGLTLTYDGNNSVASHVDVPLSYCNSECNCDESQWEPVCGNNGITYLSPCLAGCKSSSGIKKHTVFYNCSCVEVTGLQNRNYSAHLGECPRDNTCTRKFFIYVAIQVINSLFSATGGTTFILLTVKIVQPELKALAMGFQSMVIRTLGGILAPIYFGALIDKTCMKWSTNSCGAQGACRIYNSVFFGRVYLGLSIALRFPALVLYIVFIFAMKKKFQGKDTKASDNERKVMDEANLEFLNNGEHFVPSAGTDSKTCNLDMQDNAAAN
OATP1B1, sequence (Q9Y6L6 whole entry): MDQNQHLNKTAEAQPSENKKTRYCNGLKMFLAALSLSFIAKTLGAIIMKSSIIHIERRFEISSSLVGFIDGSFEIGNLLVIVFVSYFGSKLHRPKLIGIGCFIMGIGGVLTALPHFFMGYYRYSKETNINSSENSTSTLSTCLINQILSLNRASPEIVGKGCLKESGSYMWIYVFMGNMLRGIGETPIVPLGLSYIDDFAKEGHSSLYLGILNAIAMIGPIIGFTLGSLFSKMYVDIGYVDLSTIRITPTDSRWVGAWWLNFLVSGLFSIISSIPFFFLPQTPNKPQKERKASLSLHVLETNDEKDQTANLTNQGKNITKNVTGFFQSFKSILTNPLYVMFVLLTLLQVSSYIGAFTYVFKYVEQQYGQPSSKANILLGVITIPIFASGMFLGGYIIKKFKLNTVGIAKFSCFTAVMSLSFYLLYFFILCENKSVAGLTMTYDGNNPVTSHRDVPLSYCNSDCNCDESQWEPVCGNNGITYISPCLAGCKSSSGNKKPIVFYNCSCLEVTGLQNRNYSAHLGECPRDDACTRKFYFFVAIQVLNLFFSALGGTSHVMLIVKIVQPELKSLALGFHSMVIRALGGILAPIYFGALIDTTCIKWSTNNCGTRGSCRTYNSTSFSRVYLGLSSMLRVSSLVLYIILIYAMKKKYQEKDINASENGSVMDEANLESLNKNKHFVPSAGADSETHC
organic anion transporter (OAT)1, sequence (Q4U2R8 whole entry): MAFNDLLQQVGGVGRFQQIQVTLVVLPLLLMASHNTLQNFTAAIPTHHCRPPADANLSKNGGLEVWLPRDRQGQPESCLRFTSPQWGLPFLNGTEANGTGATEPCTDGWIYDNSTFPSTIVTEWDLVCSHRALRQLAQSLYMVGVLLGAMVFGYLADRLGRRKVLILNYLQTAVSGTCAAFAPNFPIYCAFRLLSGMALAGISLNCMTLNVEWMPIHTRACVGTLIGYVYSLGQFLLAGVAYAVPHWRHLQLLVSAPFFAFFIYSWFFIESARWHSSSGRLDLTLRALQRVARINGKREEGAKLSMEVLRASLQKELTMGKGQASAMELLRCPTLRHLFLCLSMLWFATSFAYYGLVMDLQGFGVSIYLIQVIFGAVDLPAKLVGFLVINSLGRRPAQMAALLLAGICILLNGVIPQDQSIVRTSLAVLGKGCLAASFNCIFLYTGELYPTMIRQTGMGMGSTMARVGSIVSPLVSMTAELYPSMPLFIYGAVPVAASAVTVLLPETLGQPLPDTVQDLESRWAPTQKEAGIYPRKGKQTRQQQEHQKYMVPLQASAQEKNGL

In the case of `C[C@@H]1CCO[C@H]2Cn3cc(C(=O)NCc4ccc(F)cc4F)c(=O)c(O)c3C(=O)N12` [Dolutegravir, dolutegravir], the “Substrate of OATP1B3” value (OATP1B3) is reported as “not a substrate”, the “Substrate of UGT1A3” value (UGT1A3) is reported as “substrate” and the IC50 (renal OCT2) is reported as 1930 nM. The “AUC exposure multiple of human (50 mg once daily) with no significant increases in drug-related neoplasms” value [1] was “approximately 20 fold”, the “Effect of age on pharmacokinetics” value ([2]; in vivo) was “no clinically relevant effect” and the “Effect of gender and race on pharmacokinetics” value ([2]; studies with the individual components) was “no clinically relevant effect”. The EC50 (HIV-2 clinical isolates) was 0.09 to 0.61 nM, the IC50 [3] was > 50000 nM and the “Decrease in dolutegravir susceptibility from reference” value ([4]; multiple substitutions T66K/L74M, E92Q/N155H, G140C/Q148R, G140S/Q148H, R or K, Q148R/N155H, T97A/G140S/Q148, E138/G140/Q148) was > 2 fold. The “Decrease in dolutegravir susceptibility from reference” value ([4]; single INSTI-resistance substitutions T66K, I151L, and S153Y) was > 2 fold, the “Effects on embryo-fetal development” value [5] was “No adverse effects” and the “Induction of CYP3A4” value (CYP3A4) was “did not induce”. The “Substrate of OATP1B1” value (OATP1B1) was “not a substrate”, the IC50 (CYP2A6) was > 50000 nM and the “Exposure multiple of maternally toxic dose with decreased body weight of developing offspring during lactation” value [6] was “approximately 32 times”. The “Effects on embryo-fetal development” value [7] was “No adverse effects”, the “Genotoxicity, bacterial reverse mutation assay” value [8] was “not genotoxic” and the “Effect on Concentration of dolutegravir” value ([9]; concomitant Carbamazepine) was “↓Dolutegravir”. For the same compound, the “Effect on Concentration of dolutegravir” value ([9]; concomitant Oxcarbazepine, Phenytoin, Phenobarbital, trial or predicted interaction) was “↓Dolutegravir”, the “Effect on Concentration of dolutegravir” value ([9]; concomitant Rifampin) was “↓Dolutegravir” and the “Effect on Concentration of dolutegravir” value ([9]; concomitant St. John's wort (Hypericum perforatum), trial or predicted interaction) was “↓Dolutegravir”. For the same compound, the “Effect on Concentration of dolutegravir” value ([9]; concomitant medications containing polyvalent cations (antacids, laxatives, sucralfate, buffered medications)) was “↓Dolutegravir”, the “Effect on Concentration of dolutegravir” value ([9]; concomitant oral calcium and iron supplements, including multivitamins) was “↓Dolutegravir” and the “Substrate of UGT1A9” value (UGT1A9) was “substrate”. For the same compound, the IC50 (CYP1A2) was > 50000 nM, the IC50 (OAT3) was 1970 nM and the IC50 [10] was 2120 nM. The “Neural tube defects, % of births” value ([11]; mothers exposed to dolutegravir-containing regimens at the time of conception, 4 of 426 births) was 0.94%, the “Neural tube defect in infants” value ([11]; women who started dolutegravir during pregnancy (n=2,812)) was “No infant” and the IC50 (CYP2C9) was > 50000 nM. For the same compound, the IC50 (UGT2B7) was > 50000 nM, the EC50 [12] was 0.52 nM and the IC50 (BCRP) was > 50000 nM. For the same compound, the “Maximum mean QTc change (QTcF)” value ([13]; dolutegravir 250-mg suspension single dose, baseline and placebo adjusted) was 2.4 ms, the QTc interval prolongation ([13]; over 24 hours postdose) was “did not prolong” and the “Decreased susceptibility to dolutegravir” value ([14]; G118R) was 10 fold. For the same compound, the “Decreased susceptibility to dolutegravir” value ([14]; substitutions E92Q, S153F or Y, G193E or R263K) was “up to 4 fold”.
